Data: the supplement of paper PMC10307832

The cell lines below were run with COC1=C(C=C(C=C1)C2=CC3=NC=CN3C(=N2)NC4=C(C=CC=N4)C(=O)N)OC [BAY61-3606] + C[C@]1(O)C[C@@H](c2nc(-c3ccc4ccc(-c5ccccc5)nc4c3)c3c(N)nccn32)C1 [Linsitinib] (partner 1 µM) (assay: relative viability (nuclei count vs DMSO), 5 days (fraction); higher = more cells survive). Details: first compound 0.02 µM.
Summary of the method: (§1)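 For relative viability, nuclei counts in treated wells were divided by those in vehicle wells. Lung cancer cell lines had been pin-tool dosed in 1536-well plates the day after seeding and cultured for 5 days, then fixed and stained in one step (final 0.05% Triton X-100, 1% formaldehyde, 1 ug/ml Hoechst) and imaged at 4×. Doses were one drug alone or a fixed anchor-drug dose plus five library-drug doses (not always all listed) in √10 steps, and values are duplicate-plate medians.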

| Cell Line | relative viability |
| --- | --- |
| NCI-H1734 | 0.827 |
| NCI-H2009 | 1.19 |
| NCI-H596 | 1.16 |
| SK-LU-1 | 1.13 |
| SW 1573 | 0.821 |
| LCLC-97TM1 | 0.182 |
| NCI-H661 | 0.868 |
| NCI-H2228 | 0.663 |
| EMC-BAC-2 | 0.837 |
| NCI-H2087 | 0.883 |
| Calu-6 | 0.977 |
| HCC-44 | 0.636 |
| NCI-H1703 | 0.596 |
| NCI-H727 | 0.258 |
| LK-2 | 0.487 |
| NCI-H2126 | 0.757 |
| NCI-H1793 | 0.797 |
| H3255 | 0.989 |
| COR-L23 | 1.02 |
| COR-L 105 | 1.11 |
| LC-2-ad | 0.971 |
| LU99A | 0.544 |
| IA-LM | 0.52 |
| A549 | 0.765 |
| NCI-H441 | 0.646 |
| NCI-H1395 | 1.39 |
| NCI-H1299 | 0.977 |
| LCLC-103H | 1.07 |

Same assay, conditions: first compound 0.06325 µM

| Cell Line | relative viability |
| --- | --- |
| RERF-LC-KJ | 0.918 |
| NCI-H1651 | 0.909 |
| EBC-1 | 0.91 |
| NCI-H1734 | 0.853 |
| NCI-H2009 | 1.28 |
| NCI-H596 | 0.962 |
| SK-LU-1 | 1.21 |
| SW 1573 | 0.762 |
| NCI-H661 | 0.484 |
| NCI-H2228 | 0.552 |
| EMC-BAC-2 | 0.862 |
| NCI-H2087 | 1.13 |
| Calu-6 | 1.02 |
| HCC-44 | 0.695 |
| NCI-H1703 | 0.389 |
| NCI-H727 | 0.184 |
| LK-2 | 0.529 |
| NCI-H2126 | 0.687 |
| NCI-H1793 | 0.892 |
| H3255 | 0.987 |
| COR-L23 | 1.07 |
| COR-L 105 | 1.02 |
| LC-2-ad | 0.922 |
| LU99A | 0.548 |
| IA-LM | 0.573 |
| A549 | 0.63 |
| NCI-H441 | 0.628 |
| NCI-H1395 | 0.989 |
| NCI-H1299 | 1.03 |
| LCLC-103H | 1.13 |

Same assay, conditions: first compound 0.2 µM

| Cell Line | relative viability |
| --- | --- |
| RERF-LC-KJ | 0.852 |
| NCI-H1651 | 0.91 |
| EBC-1 | 0.835 |
| NCI-H1734 | 0.849 |
| NCI-H2009 | 1.18 |
| NCI-H596 | 1 |
| SK-LU-1 | 0.987 |
| SW 1573 | 0.803 |
| LCLC-97TM1 | 0.187 |
| NCI-H661 | 0.627 |
| NCI-H2228 | 0.668 |
| EMC-BAC-2 | 0.852 |
| NCI-H2087 | 0.905 |
| Calu-6 | 0.893 |
| HCC-44 | 0.722 |
| NCI-H1703 | 0.842 |

| Cell Line | relative viability |
| --- | --- |
| NCI-H727 | 0.386 |
| LK-2 | 0.691 |
| NCI-H2126 | 0.742 |
| NCI-H1793 | 1 |
| H3255 | 1.07 |
| COR-L23 | 0.957 |
| COR-L 105 | 0.926 |
| LC-2-ad | 0.897 |
| LU99A | 0.575 |
| IA-LM | 0.559 |
| A549 | 0.642 |
| NCI-H441 | 0.626 |
| NCI-H1395 | 1.1 |
| NCI-H1299 | 0.994 |
| LCLC-103H | 1.12 |

Same assay, conditions: first compound 0.6325 µM

| Cell Line | relative viability |
| --- | --- |
| RERF-LC-KJ | 0.886 |
| NCI-H1651 | 1.12 |
| EBC-1 | 0.949 |
| NCI-H1734 | 0.866 |
| NCI-H2009 | 1.18 |
| NCI-H596 | 1.02 |
| SK-LU-1 | 0.984 |
| SW 1573 | 0.674 |
| LCLC-97TM1 | 0.18 |
| NCI-H661 | 0.616 |
| NCI-H2228 | 0.714 |
| EMC-BAC-2 | 0.876 |
| NCI-H2087 | 1.16 |
| Calu-6 | 0.901 |
| HCC-44 | 0.762 |
| NCI-H1703 | 0.808 |

| Cell Line | relative viability |
| --- | --- |
| NCI-H727 | 0.188 |
| LK-2 | 0.834 |
| NCI-H2126 | 0.749 |
| NCI-H1793 | 1.27 |
| H3255 | 1.18 |
| COR-L23 | 0.903 |
| COR-L 105 | 0.812 |
| LC-2-ad | 0.827 |
| LU99A | 0.501 |
| IA-LM | 0.662 |
| A549 | 0.77 |
| NCI-H441 | 0.535 |
| NCI-H1395 | 1.1 |
| NCI-H1299 | 1 |
| LCLC-103H | 1.37 |

Same assay, conditions: first compound 2 µM

| Cell Line | relative viability |
| --- | --- |
| RERF-LC-KJ | 0.807 |
| NCI-H1651 | 0.823 |
| EBC-1 | 0.628 |
| NCI-H1734 | 0.607 |
| NCI-H2009 | 1.07 |
| NCI-H596 | 0.954 |
| SK-LU-1 | 0.482 |
| SW 1573 | 0.625 |
| LCLC-97TM1 | 0.175 |
| NCI-H661 | 0.405 |
| NCI-H2228 | 0.496 |
| EMC-BAC-2 | 0.833 |
| NCI-H2087 | 0.732 |
| Calu-6 | 0.759 |
| HCC-44 | 0.751 |
| NCI-H1703 | 0.341 |

| Cell Line | relative viability |
| --- | --- |
| NCI-H727 | 0.354 |
| LK-2 | 0.412 |
| NCI-H2126 | 0.691 |
| NCI-H1793 | 0.89 |
| H3255 | 0.854 |
| COR-L23 | 0.641 |
| COR-L 105 | 0.616 |
| LC-2-ad | 0.562 |
| LU99A | 0.318 |
| IA-LM | 0.354 |
| A549 | 0.588 |
| NCI-H441 | 0.38 |
| NCI-H1395 | 0.888 |
| NCI-H1299 | 0.89 |
| LCLC-103H | 1.13 |

The cell lines below were run with COc1cccc2c1C(=O)c1c(O)c3c(c(O)c1C2=O)C[C@@](O)(C(=O)CO)C[C@@H]3O[C@H]1C[C@H](N)[C@H](O)[C@H](C)O1 [Doxorubicin] + COc1cccc2cc(-c3nc([C@H]4CC[C@H](C(=O)O)CC4)n4ncnc(N)c34)[nH]c12 [OSI-027] (partner 0.5 µM) in the same assay as above. Details: first compound 0.001 µM.
Summary of the method: as §1

| Cell Line | relative viability |
| --- | --- |
| NCI-H2342 | 0.628 |
| NCI-H1623 | 0.388 |
| RERF-LC-KJ | 0.643 |
| NCI-H1651 | 0.682 |
| NCI-H1734 | 0.799 |
